US8440669B2, “Pharmaceutical composition for prevention and treatment of diabetes or obesity comprising a compound that inhibits activity of dipeptidyl peptidase-IV, and other antidiabetic or antiobesity agents as active ingredients” (Dong-A Pharmaceutical Co. Ltd., priority 2008, dated 2013)
Where “and” joins values, the source holds several entries; their conditions need not be identical. Identical values can stand only once.

How the values were obtained:
Assay type in all cases: in vivo
[1] = test system: blood glucose; assay: Oral glucose tolerance test (OGTT), single administration in normal mice; ED30 and isobologram; conditions: C57BL/6 mice; for ED30 ± (SEM): dose giving 30% inhibition of OGTT blood glucose AUC, single agent
Method: Laboratory mice (C57BL/6 mice) as experimental subjects were fasted for 16 to 17 hours prior to the experiments. Blood was collected from caudal veins of mice in the morning on the day of the experiment and a blood glucose level was measured with an ACCU-CHEK ACTIVE Blood Glucose Meter (Roche Diagnostics). The pharmaceutical composition of the present invention was given orally 30 min prior to glucose administration (−30 min), followed by oral administration of a glucose solution (2 g/kg/10 mL) after 30 min (0 min). Blood collection was made at designated time points—just prior to drug administration, just prior to glucose administration, and 15, 30, 60 and 90 min after glucose administration.
Effects of single administration of the individual agents on a blood glucose change curve in an oral glucose tolerance test (OGTT) were identified by percent inhibition (%) and ED30. The percent inhibition values for each treatment were generated from the area under curve (AUC) data normalized to the non-glucose challenged controls by subtracted blood glucose AUC of non-glucose challenged controls from glucose challenged groups, and comparing the value with that of a control group in which glucose has been administered.
Feasible synergistic effects of a composition at each fixed ratio were analyzed by isobologram (R. J. Tallarida et al, Life Sci. 1989, 45, 947). […] When the result of ED30mix<ED30add is established at a certain fixed ratio, the mixture has synergistic effects. ED30add was calculated from ED30 of each drug. In FIG. 1, fractions of the ED30 values of each material are present on each axis thereof. The ED30 value of the compound prepared in Preparation Example 1 only is 0.2 mg/kg and shown as value 1 in FIG. 1, and the ED30 value of metformin only is 30 mg/kg and shown as value 1 in FIG. 1. Therefore, the line combining the ED30 values of the two individual drugs indicates a simple additivity (ED30add) calculated from glucose tolerance effects at different ratios. Therefore, the points designated as A, B, C, and D in FIG. 1 with respect to each mixture studied indicate fractions of ED30 values (ED30mic) determined by actual experiments performed on a mixtures of the compound prepared in Preparation Example 1 and metformin at ratios of 9:1, 5:1, 1:1, and 1:3. The points A′, B′, C′, and D′ in FIG. 1 indicate fractions of doses (ED30add) corresponding to mixtures of the compound prepared in Preparation Example 1 and metformin at ratios of 9:1, 5:1, 1:1, and 1:3 expected under a simple additivity.
The ratios of doses actually administered to animals in each fraction were calculated by multiplying 0.2 mg/kg and 30 mg/kg which are ED30 values of the compound prepared in Preparation Example 1 and metformin, respectively with a desired ratio. Administrations were performed in the ranges of: 0.045˜0.36 mg/kg of the compound prepared in Preparation Example 1+0.75˜6 mg/kg of metformin at a ratio of 9:1, 0.042˜0.33 mg/kg of the compound prepared in Preparation Example 1+1.25˜10 mg/kg of metformin at a ratio of 5:1, 0.025˜0.2 mg/kg of the compound prepared in Preparation Example 1+[…] of metformin at a ratio of 1:1, 0.0125˜0.2 mg/kg of the compound prepared in Preparation Example 1+5.625˜45 mg/kg of metformin at a ratio of 1:3. When this is applied to a healthy adult (about 70 kg), the dose corresponds to 0.88˜25.2 mg of the compound prepared in Preparation Example 1 and 52.5˜3150 mg of metformin, and includes a daily clinical dose of metformin, which is 500˜2000 mg.

[2] = test system: blood glucose; assay: Blood glucose after 7-day administration in db/db diabetic mice
Method: In order to examine synergistic effects of a complex by a compound prepared in Preparation Example 1 of the present invention and an insulin sensitizer PPARγ agonist, the percent inhibition of blood glucose by repeated administration of the complex to db/db mice as diabetic mice was evaluated. Eight-week-old male mice (db/db mice) were used as experimental subjects. […] The dose of a compound prepared in Preparation Example 1 with respect to rosiglitazone at a fixed dose was selected at 1 mg/kg and 40 mg/kg (complex ratio 1:0.01˜1:0.4) in consideration of a complex ratio in an expected clinical dose. […] 0.5% methylcellulose (MC) was at each drug concentration to prepare suspensions. Each compound was weighed, and 0.5% methylcellulose was used to prepare 5 mL/kg of suspensions with each composition of (1 mg of the compound prepared in Preparation Example 1+0.4 mg of rosiglitazone)/5 mL and (40 mg of the compound prepared in Preparation Example 1+0.4 mg of rosiglitazone)/5 mL.
The percent inhibition value with respect to blood glucose was calculated by comparison with a control group.

[3] = test system: blood glucose; assay: Oral sucrose tolerance test, single administration in C57BL/6 mice (voglibose combination)
Method: In order to examine synergistic effects of a compound prepared in Preparation Example 1 of the present invention and an α-glucosidase inhibitor-series drug by complexing drugs, the percent inhibition in a single administration oral sucrose tolerance test blood glucose change curve by individual materials and a complex thereof was evaluated. 8-week-old male experimental mice (C57BL/6 mice) were used as experimental subjects. The mice were fasted for 16 to 17 hours prior to the experiments. Blood was collected from caudal veins of mice in the morning on the day of the experiment and a blood glucose level was measured with an ACCU-CHEK ACTIVE Blood Glucose Meter (Roche Diagnostics). The pharmaceutically mixed composition of the present invention was given orally 30 min prior to sucrose administration (−30 min), followed by oral administration of a […] (2 g/kg/10 mL) after 30 min (0 min). Blood collection was made at designated time points—just prior to drug administration, just prior to sucrose administration, and 15, 30, 60, 90, and 120 min after sucrose administration. […] In order to evaluate synergistic or additive effects by complexes in the present evaluation, 0.5% methylcellulose (MC) was used to prepare a suspension with a compound prepared in Preparation Example 1 at a dose of 0.3 mg/kg, and 0.5% MC was also used to prepare a suspension with a composition of an α-glucosidase inhibitor and voglibose at 0.009 mg/kg and 0.054 mg/kg (complex ratio 1:0.031:0.18) such that a complex ratio may be included at a clinical dose expected in a state where a dose of a compound prepared in Preparation Example 1 was fixed.

[4] = test system: blood glucose; assay: OGTT, single administration in C57BL/6 mice (glimepiride combination)
Method: In order to examine synergistic effects of a complex of a compound prepared in Preparation Example 1 of the present invention and an insulin secretagogue sulfonyl urea-series drug, the percent inhibitions of single administration OGTT blood glucose change curves by individual materials and complexes were evaluated. 8-week-old male experimental mice (C57BL/6 mice) were used and fasted for 16 to 17 hours prior to the experiments. Blood was collected from caudal veins of mice in the morning on the day of the experiment and a blood glucose level was measured with an ACCU-CHEK ACTIVE Blood Glucose Meter (Roche Diagnostics). The mixed composition of the present invention was given orally 30 min prior to glucose administration (−30 min), followed by oral administration of a glucose solution (2 g/kg/10 mL) after 30 min (0 min). Blood collection was made at designated time points—just prior to drug administration, just prior to glucose administration, and 15, 30, 60 and 90 min after glucose administration. […] In order to evaluate synergistic or additive effects by complex in the present evaluation, 0.5% methylcellulose (MC) was used to prepare a suspension with a dose of a compound prepared in Preparation Example 1 at 0.1 mg/kg, and 0.5% MC was also used to prepare a suspension with a composition of an insulin secretagogue sulfonyl urea-series drug and glimepiride at 0.02 mg/kg and 0.32 mg/kg such that a complex ratio may be included at a clinical dose expected in a fixed state of a compound prepared in Preparation Example 1. […] A complex thereof was prepared at 10 mL per kg by weighing individual compounds and mixing the compounds with each composition ((a compound prepared in Preparation Example 10.1 mg+glimepiride 0.02 mg)/10 mL and (a compound prepared in Preparation Example 10.1 mg+glimepiride 0.32 mg)/10 mL)).

[5] = test system: plasma glucose; assay: Plasma glucose after 2-week repeated administration in diet-induced obesity mice; conditions: obese mice
Method: (§1) In order to examine synergistic effects of a compound prepared in Preparation Example 1 of the present invention and metformin complex by repeated administration, effects of a single administration to obese mice on an OGTT blood glucose change curve and of a 2-week repeated administration on the percent inhibition of blood glucose were evaluated. Diet-induced obesity mice obtained by supplying experimental mice (C57BL/6 mice) with high fat fodder (60 kcal % fat, Research Diets, D12492) for 5 month were used as experimental subjects. 0.5% methylcellulose (MC) was used to prepare a suspension of the compound 1 prepared in Preparation Example 1 with a composition of 0.1 mg/kg and 0.15 mg/kg. 0.5% MC was used to prepare a suspension of metformin with a composition of 7.5 mg/kg and 15 mg/kg. […] of the complex was prepared in doses of (0.1 mg/kg of a compound prepared in Preparation Example 1+15 mg/kg of metformin)/5 mL and (0.15 mg/kg of a compound prepared in Preparation Example 1+7.5 mg/kg of metformin)/5 mL.

[6] = Fat mass (epidydimal + retroperitoneal fat) after 4-week administration in diet-induced obesity mice; conditions: 4 weeks; for Fat mass: HF-DIO mice (control 3.61 ± 0.20); for % reduction (fat mass): vs HF-DIO control group
Method: (§2) In order to examine synergistic effects by repeated administration of a compound prepared in Preparation Example 1 and cannabinoid receptor-1 antagonist, effects of 4-week administration to obese mice on an OGTT blood glucose change curve and on fat mass were evaluated. Diet-induced obesity mice obtained by supplying experimental mice (C57BL/6 mice) with high fat fodder (60 kcal % fat, Research Diets, D12492) for 5 month were used as experimental subjects. 0.5% methylcellulose (MC) was used to prepare a suspension of the compound 1 prepared in Preparation Example 1 with a composition of 0.3 mg/kg which is presumed to be a dose of minimum effective efficacy and 3 mg/kg. 0.5% MC was used to prepare a suspension of rimonabant, a cannabinoid receptor-1 antagonist with a composition of 3 mg/kg. Rimonabant has the same parent nucleus structure as a cannabinoid receptor-1 antagonist, such as Otenabant, Ibinabant, and Surinabant, and 5 mL/kg of the complex thereof was prepared in doses of (0.3 mg of a compound prepared in Preparation Example 1+3 mg of rimonabant)/5 mL and (3 mg of a compound prepared in Preparation Example 1+3 mg/kg of rimonabant)/5 mL. When the mixing ratio is 1:0.1 or less, or 1:1 or more, the dose may exceed a daily clinical dose of rimonabant or poor efficacy may occur. Thus, the mixing ratio was set at […].
Experiments were performed on the experimental subject and experimental drug in the same manner as in Experimental Example 5-1, the fat mass was calculated as a sum of epidydimal fat and retroperitoneal fat, and fat mass 4 weeks after administration was measured.

[7] = test system: blood glucose; assay: OGTT after 4-week administration in diet-induced obesity mice (rimonabant combination); conditions: obese mice
Method: as §2
Obese mice were fasted for 16 to 17 hours prior to the experiments, blood was collected from caudal veins of mice in the morning on the day of the experiment and a blood glucose level was measured with an ACCU-CHEK ACTIVE Blood Glucose Meter (Roche Diagnostics). The pharmaceutically mixed composition of the present invention was given orally 30 min prior to glucose administration (−30 min), followed by oral administration of a glucose solution (2 g/kg/10 mL) after 30 min (0 min). […] The percent inhibition value was calculated by calculating an area under curve of each group and comparing the value with that of a control group in which glucose had been administered.

[8] = test system: blood glucose; assay: OGTT, single administration in diet-induced obesity mice; conditions: obese mice
Method: as §1
Obese mice were fasted for 16 to 17 hours prior to the experiments, blood was collected from caudal veins of mice in the morning on the day of the experiment and a blood glucose level was measured with an ACCU-CHEK ACTIVE Blood Glucose Meter (Roche Diagnostics). The mixed composition of the present invention was given orally 30 min prior to glucose administration (−30 min), followed by oral administration of a glucose solution (2 g/kg/10 mL) after 30 min (0 min). Blood collection was made at designated time points—just prior to drug administration, just prior to glucose administration, and 15, 30, 60 and 90 min after glucose administration. The percent inhibition value was calculated by calculating an area under curve of each group and comparing the value with that of a control group in which glucose had been administered.

In the case of `CC(C)(C)OC[C@@H]1C(=O)NCCN1C(=O)C[C@H](N)Cc1cc(F)c(F)cc1F` [(R)-4-[(R)-3-amino-4-(2,4,5-trifluorophenyl)-butanoyl]-3-(t-butoxymethyl)piperazin-2-one], the “ED30 ± (SEM)” value [1] is reported as 0.20 mg/kg and 0.2 mg/kg and 0.20 ± 0.04 mg/kg, the “Percent inhibition (blood glucose AUC, OGTT)” value ([1]; single oral dose 0.1 mg/kg) is reported as 18.5% and the “Percent inhibition (blood glucose AUC, OGTT)” value ([1]; single oral dose 0.3 mg/kg) is reported as 38.7%. For the same molecule, the “Percent inhibition (blood glucose AUC, OGTT)” value ([1]; single oral dose 1 mg/kg) was 54.8%, the “Percent inhibition (blood glucose vs control)” value ([2]; 7 days oral 1 mg/kg) was 21% and the “Percent inhibition (blood glucose vs control)” value ([2]; 7 days oral 40 mg/kg) was 11%. The “Percent inhibition (blood glucose AUC, oral sucrose tolerance test)” value ([3]; single oral dose 0.3 mg/kg) was 12%, the “Percent inhibition (blood glucose AUC, OGTT)” value ([4]; single oral dose 0.1 mg/kg) was 7.7% and the “Percent inhibition (plasma glucose vs control)” value ([5]; 2-week repeated administration 0.1 mg/kg) was 2%. For the same molecule, the “Percent inhibition (plasma glucose vs control)” value ([5]; 2-week repeated administration 0.15 mg/kg) was 15%, the Fat mass ([6]; 0.3 mg/kg) was 3.67 ± 0.12 g and the “% reduction (fat mass)” value ([6]; 0.3 mg/kg) was −1.65%. The Fat mass ([6]; 3 mg/kg) was 3.29 ± 0.21 g, the “% reduction (fat mass)” value ([6]; 3 mg/kg) was 8.71% and the “Percent inhibition (blood glucose AUC, OGTT)” value ([7]; 4-week administration 0.3 mg/kg) was 18.2%. The “Percent inhibition (blood glucose AUC, OGTT)” value ([7]; 4-week administration 3 mg/kg) was 35.3%, the “Percent inhibition (blood glucose AUC, OGTT)” value ([8]; single administration 0.1 mg/kg) was 2% and the “Percent inhibition (blood glucose AUC, OGTT)” value ([8]; single administration 0.15 mg/kg) was 3%.
For `CCC1=C(C)CN(C(=O)NCCc2ccc(S(=O)(=O)NC(=O)N[C@H]3CC[C@H](C)CC3)cc2)C1=O` [Glimepiride, glimepiride], the “Percent inhibition (blood glucose AUC, OGTT)” value ([4]; single oral dose 0.02 mg/kg) was −3.69% and the “Percent inhibition (blood glucose AUC, OGTT)” value ([4]; single oral dose 0.32 mg/kg) was 10.9%.
For `CN(C)C(=N)N=C(N)N` [Metformin, metformin, reference compound], the “ED30 ± (SEM)” value [1] was 29.6 mg/kg and 30 mg/kg and 29.6 ± 6.68 mg/kg, the “Percent inhibition (blood glucose AUC, OGTT)” value ([1]; single oral dose 10 mg/kg) was 7.43% and the “Percent inhibition (blood glucose AUC, OGTT)” value ([1]; single oral dose 30 mg/kg) was 29.06%. The “Percent inhibition (blood glucose AUC, OGTT)” value ([1]; single oral dose 100 mg/kg) was 54.46%, the “Percent inhibition (plasma glucose vs control)” value ([5]; 2-week repeated administration 7.5 mg/kg) was 13% and the “Percent inhibition (plasma glucose vs control)” value ([5]; 2-week repeated administration 15 mg/kg) was 14%. For the same molecule, the “Percent inhibition (blood glucose AUC, OGTT)” value ([8]; single administration 7.5 mg/kg) was 7% and the “Percent inhibition (blood glucose AUC, OGTT)” value ([8]; single administration 15 mg/kg) was 11%.
For `Cc1c(C(=O)NN2CCCCC2)nn(-c2ccc(Cl)cc2Cl)c1-c1ccc(Cl)cc1` [Rimonabant, rimonabant, reference compound], the Fat mass ([6]; 3 mg/kg) was 2.11 ± 0.31 g, the “% reduction (fat mass)” value ([6]; 3 mg/kg) was 41.5% and the “Percent inhibition (blood glucose AUC, OGTT)” value ([7]; 4-week administration 3 mg/kg) was 1.1%.
For `CN(CCOc1ccc(CC2SC(=O)NC2=O)cc1)c1ccccn1` (stereo not shown) [Rosiglitazone, rosiglitazone, reference compound], the “Percent inhibition (blood glucose vs control)” value ([2]; 7 days oral 0.4 mg/kg) was 10%.
In the case of `OCC(CO)N[C@H]1C[C@](O)(CO)[C@@H](O)[C@H](O)[C@H]1O` [Voglibose, voglibose], the “Percent inhibition (blood glucose AUC, oral sucrose tolerance test)” value ([3]; single oral dose 0.009 mg/kg) is reported as 1% and the “Percent inhibition (blood glucose AUC, oral sucrose tolerance test)” value ([3]; single oral dose 0.054 mg/kg) is reported as 53%.
